In patent US20240091358A1, “[…] REGULATION” (Senti Biosciences, Inc., priority 2021, published 2024):

B1: Construct 1585: SFFV promoter-hIL-10-ADAM10/17 cleavage site-PDGFRb TM-A(EAAAK)3A-d913 degron; minTK-hIL-12 (opposite direction); SEQ ID NO: 187 (nucleic acid)
DNA: CCGATAAAATAAAAGATTTTATTTAGTCTCCAGAAAAAGGGGGGAATGAAAGACCCCACCTGTAGGTTTGGCAAGCTAGCTGCAGTAACGCCATTTTGCAAGGCATGGAAAAATACCAAACCAAGAATAGAGAAGTTCAGATCAAGGGCGGGTACATGAAAATAGCTAACGTTGGGCCAAACAGGATATCTGCGGTGAGCAGTTTCGGCCCCGGCCCGGGGCCAAGAACAGATGGTCACCGCAGTTTCGGCCCCGGCCCGAGGCCAAGAACAGATGGTCCCCAGATATGGCCCAACCCTCAGCAGTTTCTTAAGACCCATCAGATGTTTCCAGGCTCCCCCAAGGACCTGAAATGACCCTGCGCCTTATTTGAATTAACCAATCAGCCTGCTTCTCGCTTCTGTTCGCGCGCTTCTGCTTCCCGAGCTCTATAAAAGAGCTCACAACCCCTCACTCGGCGCGCCAGTCCTCCGACAGACTGAGTCGCCCGGGGGGGATCTGGAGCTCTCGAGAATTCATGCACTCATCTGCTCTCCTTTGCTGTCTCGTGCTCCTGACTGGAGTACGCGCGTCACCCGGTCAAGGGACACAAAGCGAAAACTCCTGTACGCATTTTCCGGGCAACCTCCCTAATATGCTTCGCGACTTGCGAGATGCATTTTCCAGGGTGAAGACCTTCTTCCAGATGAAGGACCAGTTGGATAATCTTCTCCTCAAGGAGTCTCTTTTGGAGGACTTCAAGGGCTACCTGGGATGTCAAGCCCTTAGCGAAATGATTCAGTTTTATCTTGAAGAGGTCATGCCGCAAGCTGAGAACCAGGACCCCGACATAAAAGCCCATGTGAACTCCCTCGGCGAGAATTTGAAGACGCTGAGACTTAGATTGAGAAGATGTCATAGATTTCTCCCATGTGAGAATAAGTCCAAGGCTGTCGAGCAGGTTAAGAATGCTTTCAATAAGTTGCAGGAAAAAGGAATCTATAAGGCAATGAGCGAGTTTGACATCTTTATTAACTACATTGAGGCTTATATGA
modifications: misc_feature 1..1034 Description of Artificial Sequence: Synthetic polynucleotide
B2: Construct 1584: SFFV promoter-hIL-10; minTK-hIL-12 (opposite direction); native hIL-10 without a degron; SEQ ID NO: 186 (nucleic acid)
DNA: CCGATAAAATAAAAGATTTTATTTAGTCTCCAGAAAAAGGGGGGAATGAAAGACCCCACCTGTAGGTTTGGCAAGCTAGCTGCAGTAACGCCATTTTGCAAGGCATGGAAAAATACCAAACCAAGAATAGAGAAGTTCAGATCAAGGGCGGGTACATGAAAATAGCTAACGTTGGGCCAAACAGGATATCTGCGGTGAGCAGTTTCGGCCCCGGCCCGGGGCCAAGAACAGATGGTCACCGCAGTTTCGGCCCCGGCCCGAGGCCAAGAACAGATGGTCCCCAGATATGGCCCAACCCTCAGCAGTTTCTTAAGACCCATCAGATGTTTCCAGGCTCCCCCAAGGACCTGAAATGACCCTGCGCCTTATTTGAATTAACCAATCAGCCTGCTTCTCGCTTCTGTTCGCGCGCTTCTGCTTCCCGAGCTCTATAAAAGAGCTCACAACCCCTCACTCGGCGCGCCAGTCCTCCGACAGACTGAGTCGCCCGGGGGGGATCTGGAGCTCTCGAGAATTCATGCACTCATCTGCTCTCCTTTGCTGTCTCGTGCTCCTGACTGGAGTACGCGCGTCACCCGGTCAAGGGACACAAAGCGAAAACTCCTGTACGCATTTTCCGGGCAACCTCCCTAATATGCTTCGCGACTTGCGAGATGCATTTTCCAGGGTGAAGACCTTCTTCCAGATGAAGGACCAGTTGGATAATCTTCTCCTCAAGGAGTCTCTTTTGGAGGACTTCAAGGGCTACCTGGGATGTCAAGCCCTTAGCGAAATGATTCAGTTTTATCTTGAAGAGGTCATGCCGCAAGCTGAGAACCAGGACCCCGACATAAAAGCCCATGTGAACTCCCTCGGCGAGAATTTGAAGACGCTGAGACTTAGATTGAGAAGATGTCATAGATTTCTCCCATGTGAGAATAAGTCCAAGGCTGTCGAGCAGGTTAAGAATGCTTTCAATAAGTTGCAGGAAAAAGGAATCTATAAGGCAATGAGCGAGTTTGACATCTTTATTAACTACATTGAGGCTTATATGACTATGAAAATTAGAAACTAA
modifications: misc_feature 1..1054 Description of Artificial Sequence: Synthetic polynucleotide

Columns and labels:
Assay type in all cases: cell-based
Hep3B cells = assay: Nanoluciferase activity (Promega Nanoglo) in Hep3B cells transduced with AAV2/AAV8 nanoluciferase-degron constructs, with or without IMiD (Example 5); conditions: for luciferase activity relative to cells not treated / minimal effective dose in vitro: Hep3B cells transduced with AAV2 construct; for luciferase activity relative to cells not treated: 1-0.01 μM drug, all concentrations tested; for minimal effective dose in vitro: concentration that may be approaching the minimal effective dose; for Fold change relative to no drug: decrease in nanoluciferase activity, Hep3B cells transduced with AAV2 nanoluciferase/degron construct
Method: AAV2 and AAV8 viral vector constructs were generated that expressed nanoluciferase as a chimeric protein fused to a C-terminal degron using an A(EAAK)3A linker (SEQ ID NO: 193). Constructs were generated using packaging vectors with either AAV2 or AAV8 capsid protein.
Luciferase activity was assessed following the general protocol below: • Day 0: Hep3b cells were plated at 50,000 cells per well in a 96 well plate • Day 1: 1e6 vg/cell AAV2 or 3e6 vg/cell AAV8 was added to cells in presence or absence of 1 μM Lenalidomide (or 1 μM-0.01 μM Lenalidomide or Pomalidomide) • Day 3: Cells were lysed and luciferase activity was measured with Promega Nanoglo kit

Jurkat T cells = assay: SEAP QuantiBlue assay in Jurkat T cells (Example 3); conditions: supernatant, 1 μM lenalidomide vs no drug
Method: The viral vector constructs were generated, as described above, using Secreted Alkaline Phosphatase (SEAP) fused to a degron (d913 super degron) with various linkers, including transmembrane domain containing linkers. The constructs examined are described in Table 10.
SEAP assays were performed using the QuantiBlue kit (Invivogen; rep-qb1). For experiments performed in Jurkat cells, the following protocol was followed: • On Day 1, cells were plated at 1e6 cells in 1 mL in a 24 well plate and 300 k GS units of virus was added • On Day 3, cells were split into 6 wells of a 48 well plate (1e5 cells in 0.5 mL) and drug was added to 3 of these wells (1 μM lenalidomide) • On Day 6, cells were pelleted and 20 uL supernatant from each well was harvested and incubated with 180 uL QuantiBlue (Invivogen) for 1 h at 37 deg, SEAP activity was read out on a plate reader at 655 nm

HEK293Ft cells [1] = assay: SEAP QuantiBlue assay of SEAP/degron constructs in HEK293Ft cells (Example 1); conditions: 1 μM lenalidomide vs no drug
HEK293Ft cells [2] = assay: SEAP QuantiBlue assay of Membrane-Cleavable Degron constructs in HEK293Ft cells (Example 2); conditions: 1 μM lenalidomide vs no drug
donor-derived T cells [3] = assay: SEAP QuantiBlue assay of Membrane-Cleavable Degron constructs in donor-derived T cells (Example 2); conditions: supernatant, 1 μM lenalidomide vs no drug
Method: A series of pL17d-based viral vector constructs were generated using Secreted Alkaline Phosphatase (SEAP) fused to a degron (d913 super degron) using various linkers, including transmembrane domain containing linkers, as described in Table 8A with sequences listed in Table 8B.
(§1) SEAP assays were performed using the QuantiBlue kit (Invivogen; rep-qb1). […] The CliniMACS Prodigy utilizes a closed-system, single-use disposable kits for many different cell types. The automated program performs platelet washes, CD4+& CD8+ bead labeling, and positive selection over a magnet resulting in cell suspensions with high purity. Positively selected T cells were then sampled, analyzed for cell surface phenotype via flow cytometry and cryopreserved via a controlled rate freezer. • Cells were then thawed and activated on Day 0 (1e6 cells/mL in a 24 well plate were activated 3:1 with CD3/CD28 Dynabeads) • On Day 1, 100K GS units of virus were added to cells • On Day 2, fresh media was added to T cells • On Day 4, each well was split into 6 wells of 48 well plate with +/−1 μM lenalidomide (3 wells with drug, 3 wells without) • On Day 7, cells were pelleted and 20 uL supernatant from each well was harvested and incubated with 180 uL QuantiBlue (Invivogen) for 1 h at 37 deg, SEAP activity was read out on a plate reader at 655 nm

donor-derived T cells [4] = assay: SEAP QuantiBlue assay of SEAP/degron constructs in donor-derived T cells (Example 1); conditions: 1 μM lenalidomide vs no drug
Method: A series of pL17d-based viral vector constructs were generated using Secreted Alkaline Phosphatase (SEAP) fused to a degron (d913 super degron) using various linkers, as described in Table 6A with sequences listed in Table 6B. The d913 super degron is described in more detail in International Application Pub. No. WO2019/089592A1, herein incorporated by reference for all purposes.
as §1, with “into 2” for “into 6”, “of 6” for “of 48”, “lenalidomide” for “lenalidomide (3 wells with drug, 3 wells without)”

donor-derived T cells [5] = assay: hIL-10 secretion from donor T cells by Luminex assay, normalized to hIL-12 (Example 4); conditions: for % 1 uM Len of no drug (IL10/IL12 ratio) / Mean IL10/IL12 ratio (1 uM Len) / Mean IL10/IL12 ratio (no drug): donor T cell supernatant; for % 1 uM Len of no drug (IL10/IL12 ratio): 1 uM lenalidomide relative to no drug; for Mean IL10/IL12 ratio (1 uM Len): 1 uM lenalidomide; for Mean IL10/IL12 ratio (1 uM Len) / Mean IL10/IL12 ratio (no drug): hIL-10 normalized to hIL-12
Method: The viral vectors also expressed human IL-12 (hIL-12) from a separate promoter as a normalization control for cell number, viability, and transduction efficiency.
Cytokine secretion was assessed following the general protocol below: • Day 0: Donor T cells (enriched as previously described above) were thawed and activated with CD3/CD28 Dynabeads • Day 1: T cells were transduced with viral constructs (100 k GoStix values per 1e6 cells) • Day 2: Media was changed • Day 4: Cells were passaged • Day 7: Cells were spun down, washed 3× with media, then resuspended in media+/−1 μM Lenalidomide • Day 9: Supernatants were harvested and were evaluated for hIL10 and hIL12 concentration by Luminex assay

[6] = SEAP absorbance divided by cell count per well

Molecule | luciferase activity relative to cells not treated (Hep3B cells) | minimal effective dose in vitro (Hep3B cells) | Fold change relative to no drug (Hep3B cells; drug dose 0.01 uM) | Fold change relative to no drug (Hep3B cells; drug dose 0.05 uM) | Fold change relative to no drug (Hep3B cells; drug dose 0.1 uM) | Fold change relative to no drug (Hep3B cells; drug dose 0.5 uM) | Fold change relative to no drug (Hep3B cells; drug dose 1 uM) | % 1 uM Len of no drug (IL10/IL12 ratio) (donor-derived T cells [5]) | Mean IL10/IL12 ratio (1 uM Len) (donor-derived T cells [5]) | Mean IL10/IL12 ratio (no drug) (donor-derived T cells [5]) | further results
Nc1cccc2c1CN(C1CCC(=O)NC1=O)C2=O (centres unmarked) [lenalidomide] | significant decreases in luciferase activity | ~0.01 µM | 6 fold | 18 fold | 25 fold | 35 fold | 60 fold | – | – | – | –
Nc1cccc2c1C(=O)N(C1CCC(=O)NC1=O)C2=O (centres unmarked) [pomalidomide] | significant decreases in luciferase activity | ~0.01 µM | 4 fold | 12 fold | 19 fold | 18 fold | 19 fold | – | – | – | –
Construct 419: pL17d viral vector construct expressing SEAP without a degron; SEQ ID NO: 179 [reference compound] | – | – | – | – | – | – | – | – | – | – | OFF % of ON (SEAP enzymatic activity) (Jurkat T cells): 105.3 (ns) %; % SEAP OFF vs. ON (Len treated/untreated *100) Normalized to cell count (HEK293Ft cells [1]; [6]): 133%; % SEAP OFF vs. ON (Len treated/untreated *100) (HEK293Ft cells [1]; supernatant): 103%; % SEAP OFF vs. ON (Len treated/untreated *100) Normalized to cell count (HEK293Ft cells [2]; [6]): 104.3%; % SEAP OFF vs. ON (Len treated/untreated *100) (HEK293Ft cells [2]; supernatant): 70%; % SEAP OFF vs. ON (Len treated/untreated *100) (donor-derived T cells [3]): 129%; % SEAP OFF vs. ON (Len treated/untreated *100) Normalized to cell count (donor-derived T cells [4]; [6]): 169%; % SEAP OFF vs. ON (Len treated/untreated *100) (donor-derived T cells [4]; supernatant): 127%
B1 | – | – | – | – | – | – | – | 56% | 1.65 | 2.97 | –
B2 | – | – | – | – | – | – | – | 131% | 4.09 | 3.11 | hIL-10 secretion upon addition of lenalidomide (donor-derived T cells [5]; donor-derived T cells, 1 μM lenalidomide): did not result in reduced secretion
